Series [1] has as its system T. gondii. As to the kind of experiment: Plaque assay in human foreskin fibroblasts, 10 days treatment. The format is cell-based, Toxoplasma gondii. The following applies: HFF. Here is the method:
For plaque assay, 6-well tissue culture plates were seeded with human foreskin fibroblasts (HFF; ATCC). HFF was grown in high glucose Dulbeco’s Modified Eagle Medium supplemented with 10% FBS, 2mM L-glutamine, 100 U/ml penicillin, and 100 μg/ml streptomycin and maintained at 37°C with 5% CO2. After cultures reached confluence each well was infected with 10^4 of T. gondii. Infected cultures were treated for 10 days with Cipro derivatives, Cipro or left untreated.

The test system of series [2] is Cryptosporidium parvum sporozoites. As to the kind of experiment: Cryptosporidium parvum in vitro growth assay in MDBK cells. Type of series: cell-based. The method, then: C. parvum oocysts obtained from infected neonatal calves (Institut National de la Recherche Agronomique-INRA, Nouzilly, France) were purified as previously described and stored in PBS at 4°C. Madin Darby bovine kidney cell line (MDBK; ECACC # 88081201, Sophia Antipolis, France) was cultured at 37°C in a 5% CO2 moist atmosphere in growth medium: RPMI 1640 (Sigma, L’Isle d’Abeau, France) supplemented with 25 mM HEPES (Sigma H-3375), 200 U/ml of penicillin, 200 μg/ml of streptomycin (Sigma P-0781) and 10% fetal calf serum (FCS; Dutscher, Brumath, France).
Prior to infection, MDBK cells were trypsinized and seeded in just one well of a 24-well plate in 2 ml of RPMI 1640 with 1% FCS. Aseptic oocysts were prepared for excystation by incubation in RPMI-1640, pH 2 (for 30 min at 37°C). Then, oocytes were washed in RPMI 1640 with 1% FCS and allowed to interact with MDBK cells for 1.5 h at 37°C in a 5% CO2 atmosphere. After 3 washes by centrifugation at 160 g in RPMI 1640 to remove non-excysted oocysts and shells, infected cells were plated in 24-well plates containing glass coverslips, in 500 μl/well of RPMI/1%FCS, and allowed to settle for 24 h. The infected cells were subsequently washed 3 times with RPMI 1640 and allowed to grow for a further 5 h (in 500 μl/well of RPMI/1% FCS). 500 μl of medium containing twice-concentrated Cipro derivatives were then added in triplicates in an equal volume of growth medium and left for another 24 h. Cells were fixed in 100% methanol and stained with 20% Giemsa and 1% Alcian blue as previously described, and the effects against sporozoite proliferation were evaluated by examining at least 1000 cells/coverslip in a light microscope, using an oil immersion X100 objective.

For series [3], the system named is T. gondii tachyzoites. As to the kind of experiment: Immunofluorescence microscopy of treated tachyzoites in LLC-MK2 cells (cell division arrest, basal IMC gap). Type of series: cell-based, Toxoplasma gondii. Conditions: for Basal IMC length mean: untreated control 0.65 ± 0.11 μm; for Effect on parasite division, anti-IMC1 labeling: 1 and 5 μM Et-Cipro and Adam-Cipro, 10 μM Ph-Cipro. The method, then:
For Cipro assay, cells were infected in a ratio of 5:1 parasites per host cell and treated for 24, 48 and 72h. After treatment, infected cells were fixed in 3.7% freshly-prepared formaldehyde, permeabilized with 0.5% Triton X-100 for 15 min, and blocked with 3% bovine serum albumin (BSA) in PBS at pH 7.4 and room temperature for 1 h. All antibody incubations were performed in 3% BSA in PBS, for 1h, at room temperature. The following primary antibodies were used: anti-SAG1 (kindly provided by Dr. John Boothroyd, Stanford University School of Medicine, USA), at a dilution of 1:1000; anti-HSP60 and anti-Morn1 (kindly provided by Dr. Boris Striepen, University of Georgia, USA), diluted to 1:2000 and 1:100, respectively; and anti-IMC1 (kindly provided by Dr. Gary Ward, University of Vermont, USA), diluted to 1:1000. The secondary antibodies used here were anti-mouse/rabbit coupled to Alexa 488 or 546 (Molecular Probes). Sytox green (Molecular Probes) and DAPI (Sigma-Aldrich) were used to label the DNA. After labeling, the coverslips were mounted onto slides using Prolong gold (Life Technologies), and samples were examined on a TCSSP5 Leica or Zeiss LSM710 laser scanning confocal microscopes.

Series [4] relates to T. gondii tachyzoites. Nature of the series: Parasites per vacuole in LLC-MK2 cells after 6 h treatment (light microscopy). The format is cell-based, Toxoplasma gondii. The method, then: For the treatment of T. gondii tachyzoites with Cipro derivatives in vitro, 5x10^5 LLC-MK2 cells (ATCC CCL7, Rockville, MD/EUA) in RPMI medium were plated on coverslips inside 24-well tissue culture plates, and allowed to settle at 37°C (5% CO2) for ~24h. Then, cells were infected with parasites (freshly-harvested from infected mice) at a 10:1 ratio of parasites to host cells. […] Then, coverslips were fixed with Bouin and stained with panoptic (solutions 2 and 3 of the ‘Panotico rápido’ kit, from Laborclin Ltda., Paraná, Brazil). Alternatively, cultures were washed three times with 0.5 ml of medium (to remove test compounds) and incubated for an additional 18 h in medium without drugs, before fixing and staining. The number of parasites per vacuole was scored by direct light microscopy examination. Three independent experiments were performed for each treatment condition, and the results were analyzed by two-way ANOVA (using GraphPad Prism 5.0).

Series [5] deals with T. gondii tachyzoites (RH strain). As to the kind of experiment: Survival of mice acutely infected with T. gondii, 7-day oral treatment. Type of series: in vivo, Toxoplasma gondii. Conditions: 7 days, from 24 h post-infection. The method, then:
In this study, we used tachyzoite forms the RH strain of Toxoplasma gondii, obtained from the peritoneal cavity of mice 2 days after infection. […] Drinking water and food were given ad libitum.
To determine compound efficacy against T. gondii in vivo, female Swiss mice were infected intraperitoneally (i.p.) with 5x10^3 T. gondii tachyzoites and treated with test compounds from 24 h post-infection. […] Mice were treated once daily for 7 days, by oral gavage, and mouse mortality was monitored once a day for a period of 60 days. During survival studies, mice were not inflicted to any suffering condition and mice presenting morbidity symptoms (shivering, ruffled hair and immobility) were euthanized by CO2 asphyxiation to minimize animal suffering, and then mortality was scored. Survival curves were calculated using the Kaplan and Meier method, and compared using the log-rank (Mantel-Cox) test, in GraphPad Prism 5.0 (GraphPad Software Inc.) and P<0.05 was considered statistically significant.

Series [6] has as its system T. gondii tachyzoites. The following applies: read-out: IC50 against T. gondii in vitro; after 48 h of treatment; cited from earlier work.
The conditions of series [7]: for Serum levels of creatinine kinase (in words): single oral dose, 48 h; for Mouse weight (g) After 48 h / Mouse weight (g) Initial: uninfected Swiss mice; for Mouse weight (g) Initial: before dosing; for Serum urea: reference 18–29 mg/dL; for Serum creatinine kinase: reference ≤ 1070 U/L.
Experimental: Acute toxicity analysis was performed using non-infected female Swiss mice (19–21 g).
The test system of series [8] is T. gondii. Also on record: method as in PMID 8843293, PMID 11120943. Conditions: read-out: IC50 against T. gondii, cited from earlier work.

“And” between values parts separate entries of the source, which are not always exact repeats. Equal values may be shown once. “Also recorded” adds a separate entry of the source. Read-outs that look alike come from different tables or passages of the source.

As usually defined, the IC50 is the concentration needed to halve the response being measured. Usually inhibition stands for the percentage by which the read-out fell short of the control. Regarding `O=C(O)c1cn(C2CC2)c2cc(N3CCNCC3)c(F)cc2c1=O` [Cipro, ciprofloxacin], the entries for the “Parasite proliferation in plaque assay” value in series [1] (10 μM) and in series [1] (20 / 20 μM) were “significant decrease in parasite proliferation; also recorded: drastic reduction on parasite proliferation” and “No growth; also recorded: no plaques were observed”, respectively. Besides, the IC50 in series [2] (Cryptosporidium parvum, MDBK, after 24h, estimated, read-out: IC50 against C. parvum) is 39200 nM. In series [2] (Cryptosporidium parvum, 12.5 μM, 24 h, MDBK cells), this molecule displayed an inhibition at 12.5 µM of 19.5 ± 1.1%. Moreover, the inhibition at 25 µM in series [2] (Cryptosporidium parvum, 25 μM, 24 h, MDBK cells) turned out to be 46.1 ± 2.9%. Moreover, the inhibition at 50 µM in series [2] (Cryptosporidium parvum, 50 μM, 24 h, MDBK cells) is 53.4 ± 2.51%. Also, the “Alteration of tachyzoites (in words)” value in series [3] (20 μM, 24 h) was “not induced any significant alteration”. Moreover, the “Parasitophorous vacuoles containing parasites presenting cell division arrest” value was 24% in series [3] (20 μM, 48 h) and 26% in series [3] (20 μM, 72 h). The “Vacuoles containing just one parasite” value in series [4] (20 μM, 6 h treatment (7 h total infection), LLC-MK2) amounted to 54%. In addition, the “Parasitophorous vacuoles having just one parasite” value in series [4] (50 μM, 6 h treatment (7 h total infection), LLC-MK2) was 68%.

On to `CCOC(=O)c1cn(C2CC2)c2cc(N3CCNCC3)c(F)cc2c1=O` [Et-Cipro], for which, in series [1] (5 μM), the “Parasite proliferation in plaque assay” value is “No growth; also recorded: no plaques were observed”. The “% inhibition of sporozoites growth” value in series [2] (12.5 μM, 24 h, MDBK cells) is 20.3 ± 10.1%; in series [2] (25 μM, 24 h, MDBK cells) it was 32.6 ± 7.6%; in series [2] (50 μM, 24 h, MDBK cells) it was 36% and 36.43 ± 9.76%. In series [5] (50 mg/kg/day oral), the “Survival of T. gondii-infected mice, alive 60 days post-infection” value is listed as 18%. For the same molecule, in series [6], the IC50 was 420 nM. Besides, the “Basal IMC length mean” value in series [3] (1 μM, 24 h) is 0.76 ± 0.20 μm; in series [3] (5 μM, 24 h), 0.80 ± 0.26 μm. In addition, the “Parasite morphology, anti-SAG1 / Sytox green labeling” value in series [3] (5 μM, 24 h) was “formation of large multinucleated parasites”. Besides, the “Effect on parasite division, anti-IMC1 labeling” value in series [3] (24 h) is “parasite cell division arrest”. Besides, the “Vacuoles containing just one parasite” value in series [4] (2 μM, 6 h treatment (7 h total infection), LLC-MK2) amounted to 57%. For the same molecule, the “Concentration required to affect parasite division significantly” value in series [4] (6 h treatment) was more than 2 µM. Besides, the “Increase in activity (cell division inhibition) compared with the original compound Cipro” value in series [4] (6 h treatment, concentrations with similar effect compared) worked out at 10 fold. The “Serum levels of creatinine kinase (in words)” value in series [7] (higher doses) is “normal”. Also, the “Mouse weight (g) After 48 h” value turned out to be 22.25 g in series [7] (single oral dose 25 mg/kg), 20.92 g in series [7] (single oral dose 50 mg/kg), 22.27 g in series [7] (single oral dose 100 mg/kg) and 22.17 g in series [7] (single oral dose 200 mg/kg). Moreover, the “Mouse weight (g) Initial” value in series [7] (single oral dose 25 mg/kg) was found to be 19.87 g; in series [7] (single oral dose 50 mg/kg) it was 19.15 g; in series [7] (single oral dose 100 mg/kg), 20.71 g; in series [7] (single oral dose 200 mg/kg), 20.0 g. In addition, the Serum urea in series [7] (single oral dose 25 mg/kg) stood at 55.8 mg/dL; in series [7] (single oral dose 50 mg/kg) it was 51.2 mg/dL; in series [7] (single oral dose 100 mg/kg), 55.1 mg/dL; in series [7] (single oral dose 200 mg/kg), 49.3 mg/dL. Also, the Serum creatinine kinase in series [7] (single oral dose 25 mg/kg) is given as 1727 U/L; in series [7] (single oral dose 50 mg/kg), 182 U/L; in series [7] (single oral dose 100 mg/kg) it was 578 U/L; in series [7] (single oral dose 200 mg/kg), 583 U/L.

Regarding `COc1c(N2CCNC(C)C2)c(F)cc2c(=O)c(C(=O)O)cn(C3CC3)c12` (stereo not shown) [gatifloxacin], the IC50 in series [8] (HFF primary cell culture after 48h) was 520 nM.

Regarding `N[C@@H]1[C@H]2CN(c3nc4c(cc3F)c(=O)c(C(=O)O)cn4-c3ccc(F)cc3F)C[C@@H]12` [trovafloxacin], the IC50 in series [8] (L929 cell line) was 1370 nM.

In the case of `CCOC(=O)c1cn(C2CC2)c2cc(N3CCN(Cc4ccccc4)CC3)c(F)cc2c1=O` [Ph-Cipro], the “Parasite proliferation in plaque assay” value in series [1] (10 μM) is “No growth; also recorded: no plaques were observed”. Further, the “% inhibition of sporozoites growth” value in series [2] (12.5 μM, 24 h, MDBK cells) was found to be 33.6 ± 11.6%; in series [2] (25 μM, 24 h, MDBK cells), 42.6 ± 14.6%. In addition, the “Survival of T. gondii-infected mice, alive 60 days post-infection” value in series [5] (100 mg/kg/day oral) is recorded as 13%; in series [5] (150 mg/kg/day oral), 18%. In addition, the IC50 in series [6] was 1240 nM. Also, the “Basal IMC length mean” value in series [3] (10 μM, 24 h) is 0.73 ± 0.24 μm. The “Effect on parasite division, anti-IMC1 labeling” value in series [3] (24 h) is reported as “parasite cell division arrest”. The “Serum levels of creatinine kinase (in words)” value in series [7] (200 mg/kg) is “slightly altered”. Moreover, the “Toxicity to mice (in words)” value in series [7] (high doses (200mg/kg)) is recorded as “mild toxicity”. For the same molecule, the “Mouse weight (g) After 48 h” value is 23.85 g in series [7] (single oral dose 25 mg/kg), 22.72 g in series [7] (single oral dose 50 mg/kg), 21.94 g in series [7] (single oral dose 100 mg/kg) and 22.20 g in series [7] (single oral dose 200 mg/kg). In addition, the “Mouse weight (g) Initial” value in series [7] (single oral dose 25 mg/kg) was 21.21 g; in series [7] (single oral dose 50 mg/kg), 19.30 g; in series [7] (single oral dose 100 mg/kg), 19.21 g; in series [7] (single oral dose 200 mg/kg) it was 19.93 g. Besides, the Serum urea is 49.2 mg/dL in series [7] (single oral dose 25 mg/kg), 50.6 mg/dL in series [7] (single oral dose 50 mg/kg), 52.8 mg/dL in series [7] (single oral dose 100 mg/kg) and 46.2 mg/dL in series [7] (single oral dose 200 mg/kg). Moreover, the figures for the Serum creatinine kinase in series [7] (single oral dose 50 mg/kg) and in series [7] (single oral dose 200 mg/kg) were 506 U/L and 1541 U/L, respectively.

The record behind these values is article PMC4423777, “Ciprofloxacin Derivatives Affect Parasite Cell Division and Increase the Survival of Mice Infected with Toxoplasma gondii” (PLoS ONE, 2015).
